{"source": "patent US12529700B2", "about": "“Methods for identifying cancer” (NDSU Research Foundation, priority 2021, dated 2026)", "test_system": "MIA PaCa-2 cells", "experiment": "Gemcitabine treatment, cell viability by CCK-8 assay", "format": "cell-based, human", "conditions": "method says 20 μM for 48 hr", "description": "Gemcitabine Treatment Cells were seeded in 96-well plates at a density of 10^4 cells/well. […] Cell viability was accessed by CCK-8 assay following the manufacturer's instructions. Briefly, a mixture of 10 μL of CCK-8 and 190 μL media was added into each well, and the cells were incubated for another 1 hr. The absorbance of each well was measured at 450 nm using a microplate reader. Each experiment was performed in 6 repeats."}
{"smiles": "Nc1ccn([C@@H]2O[C@H](CO)[C@@H](O)C2(F)F)c(=O)n1", "note": "[gemcitabine]", "values": [{"measurement": "viability of malignant MIA PaCa-2 cells with vs without gemcitabine treatment", "result": "dramatic decrease in viability"}]}
